Results on three compounds are retold here after patent US20260284018A1, “DUAL INHIBITORS OF DYRK1A AND 5-HT2 FOR TREATING A BRAIN DISORDER” (THE REGENTS OF THE UNIVERSITY OF CALIFORNIA, priority 2023, published 2026).

The target in assay [1] is T1, human recombinant 5-HT2AR (Homo sapiens, UniProt P28223).
T1 construct: host or cells: CHO-K1
Description: IPOne HTRF assay, 5-HT2AR. In kind it is cell-based. The conditions noted are these: for antagonist activity at 5-HT2A, IP-One: antagonist mode. The protocol:
IPOne Assays. The 5-HT2AR and 5-HT2CR IPOne HTRF assays were performed at Epics Therapeutics S.A. (Belgium, FAST-0505I) using conventional methods. Briefly, CHO-K1 cells expressing human recombinant 5-HT2AR or 5-HT2CR grown to mid-log phase in culture media without antibiotics were detached with PBS-EDTA, centrifuged, and resuspended in medium without antibiotics buffer. Then, 20,000 cells were distributed in a 96-well plate and incubated overnight at 37° C. with 5% CO2. For agonist testing, the medium was removed and 20 μL of assay buffer plus 20 μL of test compound or reference agonist (α-Me-5-HT) was added to each well. The plate was incubated for 60 min at 37° C. with 5% CO2. For antagonist testing, the medium was removed and 20 μL of assay buffer plus 20 μL of test compound or reference antagonist (ketanserin) was added to each well. The plate was incubated for 60 min at 37° C. with 5% CO2. After addition of the lysis buffer containing IP1-d2 and anti-IP1 cryptate detection reagents, plates were incubated for 1 h at room temperature and fluorescence ratios were measured according to the manufacturer's specifications using the HTRF kit.

Assay [2] concerns phospho-Tau. Kind of assay: Phospho-Tau assay using cultured rat cortical neurons (okadaic acid insult). In kind it is cell-based. The conditions noted are these: 30 nM okadaic acid; for Tau phosphorylated at Ser202/Thr205: 50 μM pretreatment; for Tau phosphorylated at Ser202/Thr205 / Tau phosphorylated at Ser396: rat cortical neurons; for Tau phosphorylated at Ser396 / hyperphosphorylation of Tau (pTau accumulation) induced by okadaic acid: pretreatment; for hyperphosphorylation of Tau (pTau accumulation) induced by okadaic acid: rat cortical cultures, FIG. 14 and 15B. The protocol: Phospho-Tau Assay Using Cultured Rat Cortical Neurons. Primary cortical cell cultures were prepared as described previously.^2 Briefly, pregnant Sprague Dawley dams were euthanized at embryonic day 18 (E18), and the cortices of the pups were harvested. Cells were plated on poly-d-lysine coated plates at 15,000 cells per well. Cultures were maintained at 37° C. under an atmosphere containing 5% CO2. Plating media consisted of 10% heat-inactivated fetal bovine serum (FBS; Fisher) 1% penicillin-streptomycin (Fisher), and 0.5 mM glutamine (Life Technologies) in Neurobasal (Fisher). After 16-24 h, media was exchanged for replacement media consisting of IX B27 supplement (Fisher), 1% penicillin-streptomycin, 0.5 mM glutamine, and 12.5 μM glutamate in Neurobasal. On DIV6 and DIV13, 50% of media was removed, and feeding media containing 1×B27 supplement, 1% penicillin-streptomycin, 0.5 mM glutamine in Neurobasal was added with an additional 20% volume added to account for evaporation. On DIV14, the volume of each well was adjusted to 180 μL. Next, 1000× solutions of compounds in DMSO were diluted 1:100 into Neurobasal and 20 μL of the resulting solutions was added to the appropriate wells (total dilution=1:1000, 0.1% DMSO). For wells that were not treated with compounds, DMSO was diluted 1:100 into Neurobasal and 20 μL of the resulting solution was added to the appropriate wells. All treatments were randomized. After 24 h, 20 μL was removed from each well. […] After 1 h, neurons were fixed by removing 80% of the media and replacing it with a volume of 4% aqueous paraformaldehyde (ThermoFisher) equal to 50% of the working volume of the well. Then, the cells were incubated at room temperature for 15 min before the fixative was aspirated and each well was washed twice with DPBS. Cells were permeabilized using 0.2% Triton X-100 (ThermoFisher) in DPBS for 15 min at room temperature without shaking. Plates were blocked with blocking buffer (2% bovine serum albumin and […] in DPBS) overnight at 4° C. Then, plates were incubated overnight at 4° C. with gentle shaking in antibody dilution buffer (ADB) (1% bovine serum albumin and […] in DBPS) containing a chicken anti-MAP2 antibody (1:10,000; EnCor, CPCA-MAP2), guinea pig anti-Tau antibody (1:1000; Synaptic Systems), mouse anti-phosphoTau (Ser202/Thr205) antibody (1:1000; Invitrogen), and rabbit anti-phosphoTau (Ser396) antibody (1:1000; Invitrogen). Plates were washed twice with DPBS and once with ADB before being incubated for 1 h at room temperature in ADB containing an anti-chicken IgY secondary antibody conjugated to Alexa Fluor™ Plus 800 (1:1000; Invitrogen), an anti-mouse IgG secondary antibody conjugated to Alexa Fluor™ Plus 680 (1:1000; Invitrogen), an anti-guinea pig IgG secondary antibody conjugated to Alexa Fluor™ 596 (1:1000; Invitrogen), and an anti-rabbit IgG secondary antibody conjugated to Alexa Fluor™ Plus 488 (1:1000; Invitrogen). Plates were washed three times with DBPS, and after the final wash, 100 μL of DPBS was added per well before imaging on a CellInsight™ CX7 High Content Analysis imager at 20× with 12 ROIs taken per well with no bias to location and no overlap of the ROIs. Images were analyzed using Cellnomics Scan software (version 6.6.2). The compartmental analysis assay was used to measure the average intensity of each channel per field and determine the reported intensity ratios.

T1 sequence (P28223 whole entry): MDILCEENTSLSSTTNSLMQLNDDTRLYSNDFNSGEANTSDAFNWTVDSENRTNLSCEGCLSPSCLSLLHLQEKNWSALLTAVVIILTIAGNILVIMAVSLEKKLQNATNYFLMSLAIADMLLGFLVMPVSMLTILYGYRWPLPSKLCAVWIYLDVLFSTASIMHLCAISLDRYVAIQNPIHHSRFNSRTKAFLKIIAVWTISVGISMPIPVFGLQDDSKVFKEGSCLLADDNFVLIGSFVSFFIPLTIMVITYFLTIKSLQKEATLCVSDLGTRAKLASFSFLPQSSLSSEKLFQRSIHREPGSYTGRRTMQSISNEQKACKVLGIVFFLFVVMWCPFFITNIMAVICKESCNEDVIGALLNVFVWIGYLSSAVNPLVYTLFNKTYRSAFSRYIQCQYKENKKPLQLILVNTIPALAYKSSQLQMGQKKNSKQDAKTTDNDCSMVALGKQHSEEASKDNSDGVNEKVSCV

In the case of `COc1ccc2c(c1)N(CCN(C)C)/C(=C/C(C)=O)S2.O=C(O)/C=C/C(=O)O` [HTW_B_14 fumarate, (Z)-1-(3-(2-(dimethylamino)ethyl)-5-methoxybenzo[d]thiazol-2(3H)-ylidene)propan-2-one Fumarate Salt (1:1)], in assay [1], the “activation of 5-HT2A, IP-One agonist mode” value is listed as “no activation” and the “antagonist activity at 5-HT2A, IP-One” value is recorded as “antagonist activity”. In assay [2], the “Tau phosphorylated at Ser202/Thr205” value is recorded as “not observed” and the “Tau phosphorylated at Ser396” value is “no reduction”.

With `COc1ccc2c(c1)[nH]c1c(C)nccc12` [Harmine, harmine], the “hyperphosphorylation of Tau (pTau accumulation) induced by okadaic acid” value in assay [2] is “prevents pTau accumulation in cortical neurons”.

On to `COc1ccc2c3ccnc(C)c3n(CCN(C)C)c2c1.O=C(O)/C=C/C(=O)O` [HTW_A_8 fumarate, 2-(7-methoxy-1-methyl-9H-pyrido[3,4-b]indol-9-yl)-N,N-dimethylethan-1-amine Fumarate Salt (2:3)], for which, in assay [1], the “activation of 5-HT2A, IP-One agonist mode” value was “no activation” and the “antagonist activity at 5-HT2A, IP-One” value is on record as “antagonist activity”. Further, in assay [2], the “Tau phosphorylated at Ser202/Thr205” value was “can block an increase in Tau phosphorylated at Ser202/Thr205”, the “hyperphosphorylation of Tau (pTau accumulation) induced by okadaic acid” value is on record as “blocks hyperphosphorylation of Tau” and the “Tau phosphorylated at Ser396” value is given as “no reduction”.
